Reference: patent publication US11090304B2 (Amgen Inc., priority 2018, dated 2021)
Read-outs that look alike come from different tables or passages of the source.

What was measured:
[1] = biological target: GDP-bound KRAS protein (aa 1-169), containing both G12C and C118A amino acid substitutions (Homo sapiens, UniProt P01116, C118A/G12C); test: Coupled nucleotide exchange assay (SOS-mediated, AlphaScreen); type: biochemical; conditions: for Coupled exchange IC50 (5 min): 5 min compound pre-incubation; for Coupled exchange IC50 (2 h): 2 h compound pre-incubation
GDP-bound KRAS protein (aa 1-169), containing both G12C and C118A amino acid substitutions, sequence (P01116 1-169 isoform P01116-2 G12C/C118A): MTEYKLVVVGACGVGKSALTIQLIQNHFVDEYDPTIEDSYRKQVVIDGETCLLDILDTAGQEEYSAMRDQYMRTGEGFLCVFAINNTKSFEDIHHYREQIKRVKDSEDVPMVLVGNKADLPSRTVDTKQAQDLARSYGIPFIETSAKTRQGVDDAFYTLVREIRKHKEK

[2] = system: Phosphorylation of ERK1/2 in MIA PaCa-2 cells; test: Phospho-ERK1/2 MSD assay in MIA PaCa-2 cells; type: cell-based; conditions: Homo sapiens
In short: (§1)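 In the procedure, cells were plated a day ahead at 25,000 per well. Next, a dilution series of compound in growth medium was added for 2 or 4 h. EGF (10 ng/mL) stimulation for 10 min preceded washing and RIPA lysis. Lysate phospho-ERK1/2 was read by MSD, with IC50 derived by 4-parameter logistic analysis.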

[3] = system: Phosphorylation of ERK1/2 in A549 cells; test: Phospho-ERK1/2 MSD assay in A549 cells; type: cell-based; conditions: Homo sapiens
In short: as §1

[4] = MIA PaCa-2, 2 h, read-out: p-ERK IC50 (2 h; MIA PaCa-2), 2 h compound treatment
[5] = MIA PaCa-2, 4 h, read-out: p-ERK IC50 (4 h; MIA PaCa-2), 4 h compound treatment
[6] = A549, 2 h, read-out: p-ERK IC50 (2 h; A549), 2 h compound treatment
[7] = A549, 4 h, read-out: p-ERK IC50 (4 h; A549), 4 h compound treatment

Structure (SMILES)	Coupled exchange IC50 (5 min) [1]	Coupled exchange IC50 (2 h) [1]	IC50 [2, 4]	IC50 [2, 5]	IC50 [3, 6]	IC50 [3, 7]
C=CC(=O)N1CCN(c2nc(=O)n(C(C(C)C)C(C)C)c3nc(-c4ccccc4F)c(Cl)cc23)CC1 [Example 60-31, 6-chloro-1-(2,4-dimethyl-3-pentanyl)-7-(2-fluorophenyl)-4-(4-(2-propenoyl)-1-piperazinyl)pyrido[2,3-d]pyrimidin-2(1H)-one]	0.919 µM	0.115 µM	1 µM	0.71 µM	40.9 µM	86.6 µM
C=CC(=O)N1CCN(c2nc(=O)n(C(CC)CC)c3nc(-c4c(C)ccc5[nH]ncc45)c(Cl)cc23)[C@@H](C)C1 [Example 60-32, 6-chloro-7-(5-methyl-1H-indazol-4-yl)-4-((2S)-2-methyl-4-(2-propenoyl)-1-piperazinyl)-1-(3-pentanyl)pyrido[2,3-d]pyrimidin-2(1H)-one]	0.392 µM	0.157 µM	0.221 µM	0.213 µM	87.4 µM	63.9 µM
C=CC(=O)N1CCN(c2nc(=O)n(CC(C)(C)C(F)(F)F)c3nc(-c4ccccc4F)c(Cl)cc23)[C@@H](C)C1 [Example 60-33, 6-chloro-7-(2-fluorophenyl)-4-((2S)-2-methyl-4-(2-propenoyl)-1-piperazinyl)-1-(3,3,3-trifluoro-2,2-dimethylpropyl)pyrido[2,3-d]pyrimidin-2(1H)-one]	1.24 µM	0.139 µM	1.7 µM		≥ 100 µM	
C=CC(=O)N1CCN(c2nc(=O)n(CC(C)(C)C(F)(F)F)c3nc(-c4c(C)ccc5[nH]ncc45)c(Cl)cc23)[C@@H](C)C1 [Example 60-34, 6-chloro-7-(5-methyl-1H-indazol-4-yl)-4-((2S)-2-methyl-4-(2-propenoyl)-1-piperazinyl)-1-(3,3,3-trifluoro-2,2-dimethylpropyl)pyrido[2,3-d]pyrimidin-2(1H)-one]	0.478 | nda μM		0.508 µM		≥ 10 µM	
C=CC(=O)N1CCN(c2nc(=O)n(-c3ccccc3C(C)C)c3nc(Cl)c(Cl)cc23)[C@@H](C)C1 [Example 61-1, 6,7-Dichloro-4-((2S)-2-methyl-4-(2-propenoyl)-1-piperazinyl)-1-(2-(2-propanyl)phenyl)pyrido[2,3-d]pyrimidin-2(1H)-one]		nda | 0.776 μM	2.48 µM	0.992 µM	≥ 100 µM	≥ 11.1 µM
C=CC(=O)N1CCN(c2nc(=O)n(-c3ccncc3C3CC3)c3cc(-c4c(O)cccc4F)c(Cl)cc23)[C@@H](C)C1 [Example 62-3, 6-chloro-1-(3 cyclopropyl-4-pyridinyl)-7-(2-fluoro-6-hydroxyphenyl)-4-((2S)-2-methyl-4-(2-propenoyl)-1-piperazinyl)-2(1H)-quinazolinone]	0.147 | nda μM		0.845 µM		≥ 10 µM	
C=CC(=O)N1CCN(c2nc(=O)n(-c3ccccc3C(C)C)c3nc(N4CCC4)c(Cl)cc23)[C@@H](C)C1 [Example 69-2, 7-(1-azetidinyl)-6-chloro-4-((2S)-2-methyl-4-(2-propenoyl)-1-piperazinyl)-1-(2-(2-propanyl)phenyl)pyrido[2,3-d]pyrimidin-2(1H)-one]		nda | 0.511 μM	1.31 µM		≥ 33.3 µM	
C=CC(=O)N1CCN(c2nc(=O)n(-c3nccn3C(C)C)c3cc(-c4ccccc4F)c(Cl)cc23)[C@@H](C)C1 [Example 91, 6-Chloro-7-(2-fluorophenyl)-4-((2S)-2-methyl-4-(2-propenoyl)-1-piperazinyl)-1-(1-(2-propanyl)-1H-imidazol-2-yl)-2(1H)-quinazolinone]	0.2 | nda μM		0.312 µM		≥ 10 µM	
CC(C)c1ccccc1-n1c(=O)nc(N2CCN(C(=O)/C=C/CN(C)C)CC2)c2cc(Cl)c(-c3c(O)cccc3F)cc21 [Example 92, 6-Chloro-4-(4-((2E)-4-(dimethylamino)-2-butenoyl)-1-piperazinyl)-7-(2-fluoro-6-hydroxyphenyl)-1-(2-(2-propanyl)phenyl)-2(1H)-quinazolinone]		nda | 0.123 μM		1.55 µM		108 µM
C=CC(=O)N1CCN(c2nc(=O)n(-c3c(CC)cccc3CC)c3nc(C4CC4)c(Cl)cc23)[C@@H](C)C1 [Example 94, 6-Chloro-7-cyclopropyl-1-(2,6-diethylphenyl)-4-((2S)-2-methyl-4-(2-propenoyl)-1-piperazinyl)pyrido[2,3-d]pyrimidin-2(1H)-one]	0.781 µM	0.112 µM	1.51 µM		≥ 10 µM	
C=CC(=O)N1CCN(c2nc(=O)n(-c3ccc(OCCN=[N+]=[N-])cc3C(C)C)c3nc(N4CCCCC4)c(Cl)cc23)[C@@H](C)C1 [Example 117, 1-(4-(2-Azidoethoxy)-2-(2-propanyl)phenyl)-6-chloro-4-((2S)-2-methyl-4-(2-propenoyl)-1-piperazinyl)-7-(1-piperidinyl)pyrido[2,3-d]pyrimidin-2(1H)-one]		nda | 0.916 μM	4.88 µM		≥ 10 µM	
